{"source": "paper PMC5664067", "about": "“Investigating the Interaction of Cyclic RGD Peptidomimetics with αVβ6 Integrin by Biochemical and Molecular Docking Studies” (Cancers, 2017)", "key": {"[1]": {"biological_target": "T1, Recombinant human integrin αVβ6 receptor (Homo sapiens, UniProt P06756+P18564)", "T1 construct": "purchased R&D Systems", "T1 sequence (P06756 31-889 limits assumed)": "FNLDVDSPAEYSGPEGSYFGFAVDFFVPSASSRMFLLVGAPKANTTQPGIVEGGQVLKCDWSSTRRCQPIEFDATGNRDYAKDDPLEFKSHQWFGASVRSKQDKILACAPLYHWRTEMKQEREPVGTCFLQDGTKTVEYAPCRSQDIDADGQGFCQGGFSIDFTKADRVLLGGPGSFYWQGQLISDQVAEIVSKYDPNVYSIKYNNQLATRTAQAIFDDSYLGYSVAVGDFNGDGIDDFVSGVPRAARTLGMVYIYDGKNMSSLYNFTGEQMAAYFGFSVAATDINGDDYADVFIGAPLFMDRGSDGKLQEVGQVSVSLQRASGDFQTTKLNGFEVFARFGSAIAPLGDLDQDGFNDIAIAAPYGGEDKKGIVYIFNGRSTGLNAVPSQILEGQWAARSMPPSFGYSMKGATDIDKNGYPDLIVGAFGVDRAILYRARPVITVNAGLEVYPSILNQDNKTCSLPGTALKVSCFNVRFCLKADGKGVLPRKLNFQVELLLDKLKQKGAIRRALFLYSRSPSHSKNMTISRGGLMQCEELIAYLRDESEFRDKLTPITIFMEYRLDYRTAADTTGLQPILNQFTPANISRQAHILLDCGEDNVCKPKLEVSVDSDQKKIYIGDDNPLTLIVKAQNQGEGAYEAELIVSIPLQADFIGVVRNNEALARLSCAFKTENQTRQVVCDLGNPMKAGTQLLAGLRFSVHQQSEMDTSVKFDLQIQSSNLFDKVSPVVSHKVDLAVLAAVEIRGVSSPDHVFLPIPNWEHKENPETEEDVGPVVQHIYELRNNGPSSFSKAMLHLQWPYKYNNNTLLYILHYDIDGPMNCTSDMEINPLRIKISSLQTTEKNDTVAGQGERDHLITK", "T1 sequence (P06756 891-992 partner limits assumed)": "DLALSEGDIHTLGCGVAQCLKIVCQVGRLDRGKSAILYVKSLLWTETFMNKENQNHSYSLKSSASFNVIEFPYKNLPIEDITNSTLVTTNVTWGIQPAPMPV", "T1 sequence (P18564 22-707 limits assumed)": "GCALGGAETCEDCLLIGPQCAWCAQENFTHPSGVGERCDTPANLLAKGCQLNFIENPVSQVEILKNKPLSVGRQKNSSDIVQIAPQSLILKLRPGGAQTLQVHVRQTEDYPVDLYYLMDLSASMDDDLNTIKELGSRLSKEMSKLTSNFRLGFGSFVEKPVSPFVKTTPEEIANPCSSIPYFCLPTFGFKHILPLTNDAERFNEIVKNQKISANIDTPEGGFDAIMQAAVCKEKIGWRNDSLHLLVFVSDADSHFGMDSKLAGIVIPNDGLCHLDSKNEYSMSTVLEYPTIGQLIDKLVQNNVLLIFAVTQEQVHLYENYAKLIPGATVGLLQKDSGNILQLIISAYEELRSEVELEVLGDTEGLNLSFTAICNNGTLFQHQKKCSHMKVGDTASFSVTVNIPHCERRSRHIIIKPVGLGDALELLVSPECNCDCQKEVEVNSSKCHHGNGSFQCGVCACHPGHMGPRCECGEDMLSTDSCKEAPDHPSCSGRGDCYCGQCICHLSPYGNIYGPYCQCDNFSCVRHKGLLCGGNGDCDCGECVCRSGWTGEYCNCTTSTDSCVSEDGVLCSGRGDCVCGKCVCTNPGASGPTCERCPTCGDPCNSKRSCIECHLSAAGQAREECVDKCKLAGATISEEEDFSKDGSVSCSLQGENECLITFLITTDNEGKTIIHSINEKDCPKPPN", "assay": "Competitive solid-phase binding assay: inhibition of biotinylated fibronectin binding to isolated αVβ6 integrin", "settings": "for IC50 (αVβ6)/IC50 (αVβ3): selectivity ratio; for αVβ6 IC50: 50% inhibition of biotinylated fibronectin (1 μg/mL) binding to isolated αVβ6, mean ± SD of triplicate determinations", "experimental": "The assay was performed according to previously reported procedures with slight modifications.\nRecombinant human integrin αVβ6 receptor (R&D Systems, Minneapolis, MN, USA) was diluted to 1.0 μg/mL in coating buffer containing 20 mM Tris-HCl (pH 7.4), 150 mM NaCl, 1 mM MnCl2, 2 mM CaCl2, and 1 mM MgCl2. An aliquot of diluted receptor (100 μL/well) was added to 96-well microtiter plates (Nunc MaxiSorp, Thermo Fisher Scientific, Roskilde, Denmark) and incubated overnight at 4 °C. The plates were incubated with blocking solution (coating buffer plus 1% bovine serum albumin) for additional 2 h at room temperature to block nonspecific binding. After washing twice with blocking solution, plates were incubated shaking in the dark for 3 h at room temperature, with various concentrations (10^−4–10^−11 M) of test compounds in the presence of 1 μg/mL biotinylated fibronectin (Molecular Innovations, Novi, MI, USA). Biotinylation was performed using an EZ-Link Sulfo-NHS-Biotinylation kit (Pierce, Rockford, IL, USA). After washing three times, the plates were incubated shaking for 1 h, at room temperature, with streptavidin-biotinylated peroxidase complex (Amersham Biosciences, Uppsala, Sweden). After washing 3 times with blocking solution, plates were incubated with 100 μL/well of Substrate Reagent Solution (R&D Systems) for 30 min shaking in the dark, before stopping the reaction with the addition of 50 μL/well 2N H2SO4. Absorbance at 415 nm was read in a SynergyTM HT Multi-Detection Microplate Reader (BioTek Instruments, Inc., Winooski, VT, USA). Each data point represents the average of triplicate wells; data analysis was carried out by nonlinear regression analysis with GraphPad Prism software (GraphPad Software, Inc., La Jolla, CA, USA). Each experiment was repeated in triplicate."}, "αVβ3 integrin [2]": {"biological_target": "T2, αVβ3 integrin (Homo sapiens, UniProt P05106+P06756)", "T2 sequence (P06756 31-889 limits assumed)": "as the sequence (P06756 31-889 limits assumed) above", "T2 sequence (P06756 891-1048 partner limits assumed)": "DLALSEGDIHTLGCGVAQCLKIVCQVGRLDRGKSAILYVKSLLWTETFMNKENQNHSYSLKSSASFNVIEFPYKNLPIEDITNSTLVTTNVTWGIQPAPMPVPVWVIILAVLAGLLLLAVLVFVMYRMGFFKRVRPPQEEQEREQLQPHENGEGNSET", "T2 sequence (P05106 27-788)": "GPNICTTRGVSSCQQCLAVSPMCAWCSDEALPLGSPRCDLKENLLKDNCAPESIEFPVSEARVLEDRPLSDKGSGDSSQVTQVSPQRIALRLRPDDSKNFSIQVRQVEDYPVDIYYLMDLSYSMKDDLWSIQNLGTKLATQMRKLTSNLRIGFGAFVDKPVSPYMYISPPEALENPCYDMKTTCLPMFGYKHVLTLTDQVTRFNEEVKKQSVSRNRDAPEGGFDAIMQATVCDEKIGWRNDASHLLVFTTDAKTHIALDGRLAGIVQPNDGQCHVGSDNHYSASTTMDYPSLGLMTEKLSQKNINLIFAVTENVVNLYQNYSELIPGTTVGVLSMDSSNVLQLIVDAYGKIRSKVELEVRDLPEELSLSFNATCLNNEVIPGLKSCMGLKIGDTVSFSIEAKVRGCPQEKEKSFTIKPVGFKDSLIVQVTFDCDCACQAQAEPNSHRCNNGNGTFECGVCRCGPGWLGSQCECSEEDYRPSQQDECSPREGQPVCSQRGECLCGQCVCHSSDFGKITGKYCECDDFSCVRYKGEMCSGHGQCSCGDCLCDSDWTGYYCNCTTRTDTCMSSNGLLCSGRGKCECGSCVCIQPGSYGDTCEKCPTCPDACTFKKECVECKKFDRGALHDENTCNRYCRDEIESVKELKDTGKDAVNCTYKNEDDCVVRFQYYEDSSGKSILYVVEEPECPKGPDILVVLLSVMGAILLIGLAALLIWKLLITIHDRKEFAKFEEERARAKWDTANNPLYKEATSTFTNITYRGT", "design": "method as in PMID 22517378", "settings": "50% inhibition of biotinylated vitronectin binding to αVβ3; cited from earlier work"}, "αVβ3 integrin [3]": {"biological_target": "T2, αVβ3 integrin", "assay": "Inhibition of biotinylated vitronectin binding to isolated αVβ3 integrin", "settings": "50% inhibition of biotinylated vitronectin binding to isolated αVβ3; new RAD peptidomimetic tested for this paper"}, "human endothelial cells": {"system": "human endothelial cells", "design": "method as in PMID 25053992", "settings": "cited from earlier work"}, "[4]": {"system": "FAK/Akt integrin-activated transduction signaling pathway", "design": "method as in PMID 25761230", "settings": "human glioblastoma cells; cited from earlier work"}, "human glioblastoma cells": {"system": "human glioblastoma cells", "design": "method as in PMID 25761230", "settings": "cited from earlier work"}, "different cancer cells": {"system": "different cancer cells", "design": "method as in PMID 25053992", "settings": "cited from earlier work"}, "integrin αVβ6": {"system": "integrin αVβ6", "design": "method as in PMID 28074920", "settings": "immobilized LAP and soluble integrin; cited from earlier work"}}, "note": "Read-outs that look alike come from different tables or passages of the source."}
{"smiles": "N=C(N)NCCC[C@@H]1NC(=O)C[C@@H]2NC(=O)[C@@H](CNC(=O)[C@H](CC(=O)O)NC(=O)CNC1=O)N(Cc1ccccc1)C2=O", "note": "[Compound 2]", "values": [{"measurement": "IC50", "setting": "[1]", "value": "345 ± 1", "unit": "nM"}, {"measurement": "IC50 (αVβ6)/IC50 (αVβ3)", "setting": "[1]", "value": 108}]}
{"smiles": "N=C(N)NCCC[C@@H]1NC(=O)C[C@H]2C(=O)N(Cc3ccccc3)[C@H](CNC(=O)[C@H](CC(=O)O)NC(=O)CNC1=O)C(=O)N2Cc1ccccc1", "note": "[Compound 5]", "values": [{"measurement": "IC50", "setting": "[1]", "value": "173 ± 52.5", "unit": "nM"}, {"measurement": "IC50", "setting": "αVβ3 integrin [2]", "value": "12.6 ± 5", "unit": "nM"}]}
{"smiles": "N=C(N)NCCC[C@@H]1NC(=O)C[C@@H]2C(=O)N(Cc3ccccc3)[C@@H](CNC(=O)[C@H](CC(=O)O)NC(=O)CNC1=O)C(=O)N2Cc1ccccc1", "note": "[Compound 7]", "values": [{"measurement": "IC50", "setting": "[1]", "value": "2.3 ± 0.8", "unit": "nM"}, {"measurement": "αVβ6 IC50", "setting": "[1]", "value": "low nanomolar"}, {"measurement": "αVβ3 IC50", "setting": "αVβ3 integrin [2]", "value": "subnanomolar"}]}
{"smiles": "N=C(N)NCCC[C@@H]1NC(=O)C[C@H]2C(=O)N[C@H](CNC(=O)[C@H](CC(=O)O)NC(=O)CNC1=O)C(=O)N2Cc1ccccc1", "note": "[Compound 4]", "values": [{"measurement": "IC50", "setting": "[1]", "value": "95.3 ± 4.9", "unit": "nM"}]}
{"smiles": "CC1NC(=O)[C@H](CCCNC(=N)N)NC(=O)C[C@H]2NC(=O)[C@H](CNC(=O)[C@H](CC(=O)O)NC1=O)N(Cc1ccccc1)C2=O", "note": "(some centres unmarked) [Compound 8, Cyclo[DKP-3-RAD]]", "values": [{"measurement": "αVβ6 IC50", "setting": "[1]", "value": "micromolar"}, {"measurement": "IC50 (αVβ6)/IC50 (αVβ3)", "setting": "[1]", "value": 3}, {"measurement": "αVβ3 IC50", "setting": "αVβ3 integrin [3]", "value": "micromolar"}]}
{"smiles": "N=C(N)NCCC[C@@H]1NC(=O)C[C@@H]2C(=O)N[C@@H](CNC(=O)[C@H](CC(=O)O)NC(=O)CNC1=O)C(=O)N2Cc1ccccc1", "note": "[Compound 6]", "values": [{"measurement": "IC50", "setting": "[1]", "value": "76.6 ± 4.2", "unit": "nM"}, {"measurement": "IC50 (αVβ6)/IC50 (αVβ3)", "setting": "[1]", "value": 37}]}
{"smiles": "N=C(N)NCCC[C@@H]1NC(=O)C[C@H]2NC(=O)[C@H](CNC(=O)[C@H](CC(=O)O)NC(=O)CNC1=O)N(Cc1ccccc1)C2=O", "note": "[Compound 3]", "values": [{"measurement": "inhibition of angiogenesis induced by pro-angiogenic growth factors", "setting": "human endothelial cells", "value": "significantly inhibit"}, {"measurement": "effects on the FAK/Akt integrin-activated transduction signaling pathway", "setting": "[4]", "value": "inhibitory effects"}, {"measurement": "IC50", "setting": "[1]", "value": "95.6 ± 24.6", "unit": "nM"}, {"measurement": "IC50 (αVβ6)/IC50 (αVβ3)", "setting": "[1]", "value": 21}, {"measurement": "effects on integrin-mediated cell infiltration processes", "setting": "human glioblastoma cells", "value": "inhibitory effects"}, {"measurement": "inhibition of cell adhesion", "setting": "different cancer cells", "value": "significantly inhibit"}]}
{"smiles": "CC(C)[C@H]1C(=O)N[C@@H](CCCNC(=N)N)C(=O)NCC(=O)N[C@@H](CC(=O)O)C(=O)N[C@H](Cc2ccccc2)C(=O)N1C", "note": "[Compound 1a, cyclo[RGDf(N-Me)V]]", "values": [{"measurement": "αVβ6 IC50", "setting": "integrin αVβ6", "value": "micromolar"}]}
